Data as given in patent US8772335B2, “Adamantyl derivatives as therapeutic agents” (Women & Infants' Hospital of Rhode Island, priority 2011, dated 2014).

Legend:
Format in all cases: cell-based
[1] = system: immortalized TCL-1 trophoblasts; assay: MTS cell viability, immortalized trophoblasts (control cells); settings: drug concentrations of 40 μM
Description: Cancer cells derived from neuroblastoma (SMSKCNR), ovarian (SKOV-3), prostate (PC-3), cervical (HeLa), skin (a431), immortalized lung fibroblasts (MRCS) and immortalized trophoblasts (TCL-1) were seeded (5000-10000) in a 96 well plate in complete medium as recommended by ATCC and allowed to adhere overnight. Medium was replaced with fresh complete medium containing various concentrations of compound (2) and (3). The cells were incubated under standard humidified incubator (5% CO2) for 48 hours. The medium was replaced again with 100 μL of complete RPMI medium containing MTS reagent (Cell titre 96 aqueous one solution cell proliferation assay, Promega, Madison, Wis.) and incubated for 1-6 hours until violet farmazon color developed (the optical density (OD) of the color was read with an ELISA plate reader at 492 nm wavelength). The OD values of the treatment wells were plotted against vehicle OD as 100% cell viablity using MS excel software.
Cancer cells derived from neuroblastoma (SMSKCNR), ovarian (SKOV-3), prostate (PC-3), endometrial (ECC-1, AN3CA, KLE), breast (MCF-7) and trophoblasts (TCL-1) were seeded (5000-10000 cells/well) in a 96 well plate in complete medium as recommended by ATCC and allowed to adhere overnight. The medium was replaced with fresh complete medium containing ascorbic acid (500 μM) and added various concentrations of AC-AM. […]

SKOV-3 cells = assay: Cell cycle progression of SKOV-3 cells (propidium iodide, FACS); set-up: G1 / Apoptosis: unit not given here; settings: for G1 / G2/M / S / Apoptosis: SKOV-3 cells, 10 μM; for G1 / G2/M / S: cell population distribution by FACS; for Apoptosis: sub-G1 population by FACS
Description: SKOV-3 cells (˜1 million) were seeded in complete DMEM media in 10 cm^2 dishes and allowed to adhere overnight. Media was removed and supplemented with AMITC and AC-AM (10 μM) or vehicle and cells were harvested at 4, 12, 18, 32, and 48 hours. The cells were washed and fixed with cold 70% ethanol/H2O. After 1 hour, ethanol was removed and 500 μL of propidinium iodide (PI) (1 mg/10 mL) was added to each tube containing cells. The distribution of the cell population in various phases of cell-cycle was analyzed using FACS. 10,000 events were chosen from each sample.

[2] = system: ovarian and endometrial cancer cells; assay: MTS viability with ascorbic acid co-treatment (role of ROS)
Description: Cancer cells derived from neuroblastoma (SMSKCNR), ovarian (SKOV-3), prostate (PC-3), endometrial (ECC-1, AN3CA, KLE), breast (MCF-7) and trophoblasts (TCL-1) were seeded (5000-10000 cells/well) in a 96 well plate in complete medium as recommended by ATCC and allowed to adhere overnight. The medium was replaced with fresh complete medium containing ascorbic acid (500 μM) and added various concentrations of AC-AM. The cells were incubated under standard humidified incubator (5% CO2) for 24 hours. The medium was replaced again with 100 μL of complete RPMI medium containing MTS reagent (Cell titre 96 aqueous one solution cell proliferation assay, Promega, Madison, Wis.) and incubated for 1-6 hours until violet farmazon color developed (the optical density of the color was read with an ELISA plate reader at 492 nm wavelength). The OD values of the treatment wells were plotted against vehicle OD set at 100% cell viability using MS excel software.

Row | Compound | G1 (SKOV-3 cells; 4 hr) | G2/M (SKOV-3 cells; 4 hr) | S (SKOV-3 cells; 4 hr) | Apoptosis (SKOV-3 cells; 4 hr) | G1 (SKOV-3 cells; 12 hr) | G2/M (SKOV-3 cells; 12 hr) | S (SKOV-3 cells; 12 hr) | Apoptosis (SKOV-3 cells; 12 hr) | G1 (SKOV-3 cells; 18 hr) | G2/M (SKOV-3 cells; 18 hr) | S (SKOV-3 cells; 18 hr) | Apoptosis (SKOV-3 cells; 18 hr) | G1 (SKOV-3 cells; 32 hr) | G2/M (SKOV-3 cells; 32 hr) | S (SKOV-3 cells; 32 hr) | Apoptosis (SKOV-3 cells; 32 hr) | G1 (SKOV-3 cells; 48 hr) | G2/M (SKOV-3 cells; 48 hr) | S (SKOV-3 cells; 48 hr) | Apoptosis (SKOV-3 cells; 48 hr) | other results
1 | S=C=NCC12CC3CC(CC(C3)C1)C2 [AMITC, adamantyl methyl isothiocyanate] | 63 | 11 | 25.30 | 7.24 | 46.18 | 26.06 | 27.27 | 8.52 | 39.19 | 29.13 | 31.32 | 14.83 | 48 | 20.12 | 31.86 | 16.07 | 43 | 37.44 | 19.36 | 19.46 | viability of immortalized TCL-1 trophoblasts [1]: not significantly affected; effect on cell cycle phases (in words) (SKOV-3 cells; SKOV-3 ovarian cancer cells): arrest ovarian cancer cells in G2/M phase
2 | CC(=O)NC(CSC(=S)NCC12CC3CC(CC(C3)C1)C2)C(=O)O (stereo not shown) [AC-AM] | 63 | 10.40 | 25.70 | 4.81 | 45.15 | 27.17 | 27.67 | 7.73 | 37.37 | 30.85 | 31.78 | 13.33 | 37.78 | 28.89 | 33.34 | 16.29 | 48.48 | 17.90 | 33.62 | 16.62 | effect of antioxidant ascorbic acid on cytotoxicity [2]: blocked
